Assay results: PMC6882468 (Journal of Enzyme Inhibition and Medicinal Chemistry, 2019)

Tests used:
[1] = test system: DNFB-induced mouse model of allergic contact dermatitis; test: DNFB-induced mouse model of allergic contact dermatitis (ear swelling); type: in vivo, Male ICR mice; conditions: for Swelling degree / Inhibition (%) of ear swelling: mice; for Swelling degree: Mean ± SD, n = 6; for Inhibition (%) of ear swelling: vs model group
Experimental: Male ICR mice (20 ± 2 g) were obtained from the Experimental Animal Centre of Anhui Medical University (Hefei, China). The mice reared in a pathogen-free setting (23 ± 2 °C, 55 ± 5% humidity) with free access to water and pelleted food throughout the experimental cycle. All experimental procedures performed in accordance with guide for the Care and Use of Laboratory Animals (National Research Council, 1996) and were approved by the Experimental Animal Ethics Committee of Anhui University of Chinese Medicine (Hefei, China). After 7 days acclimatisation, the mice were randomly divided into control group, ACD model group, dexamethasone positive control group and 20 compound groups, six in each group. The control group and the model group were given the same dose of the vehicle, the positive control group was given dexamethasone 0.5 mg/kg, and the test compound groups were given compound 5 mg/kg, all of which were given by intragastric administration and were administered once a day for 6 days. Except for the control group, the 50 µL of 1% DNFB (in acetone/olive oil 4:1) was administered to the stripped epidermis, and repeated the next day. After 6 days of drug treatment, 10 µL of 1% DNFB acetone olive oil solution was applied on both sides of the right ear to stimulate inflammation, and equivalent acetone olive oil solution was applied on the left ear for comparison. […] Calculation was carried out according to the following equations. Swelling degree (mg) = MR – ML Inhibitory rate of ear swelling (%)=((MR – ML) model – (MR – ML) treated)/(MR – ML) model ×100% MR=Average weight of the right ear slices;ML= Average weight of the left ear slices […] Dexamethasone (DEX) at a p.o. dose of 0.5 mg/kg was employed as the positive control. After the mice were sacrificed, the swelling degree and inhibition rate were calculated by weighing the same part of both ears.

[2] = test system: NF-κB activation in RAW264.7 cells; test: Western blot of LPS-induced NF-κB activation; type: cell-based, Murine; conditions: RAW264.7, 2-h pre-treatment before LPS stimulation
Experimental: The cell in 96-well plates were treated as described above and then stimulated with LPS (200 ng/mL) for 24 h. The cells were harvested and lysed in an extraction lysis buffer (Beyotime Biotechnology, Shanghai, China) containing protease inhibitors. The protein concentration was determined using a BCA protein assay kit (Thermo Scientific, 23227). The whole cell lysates were separated by 10% sodium dodecyl sulphate-polyacrylamide gel electrophoresis and transferred to a nitrocellulose membrane. Each membrane was incubated with Tris-buffered saline (pH 7.6, containing 0.05% Tween-20 and 5% non-fat milk). The nitrocellulose membrane was incubated with the primary antibody against p-JNK1/2, JNK1/2, p-p38, p38, p-ERK1/2, ERK1/2, IκBa, NF-κB p65, COX-2, iNOS or β-Actin (Abcam, Cambridge, UK). Immunoreactive bands were detected by incubating with horseradish peroxidase-conjugated secondary antibodies, and visualised using enhanced chemiluminescence reagents (Bio-Rad, Hercules, CA).
Figure 5. Compound 6n inhibited LPS-induced NF-κB activation in RAW264.7 cells. […] The levels of NF-κB p65, IκB, and their phosphorylated forms were analysed using western blot.

[3] = 5 mg/kg intragastric once a day for 6 days, ear slices weighed 24 h after DNFB challenge
[4] = 5 mg/kg intragastric once a day for 6 days
[5] = positive control 0.5 mg/kg intragastric once a day for 6 days

Row | Structure (SMILES) | Swelling degree [1, 3] | Inhibition (%) of ear swelling [1, 4] | other results
1 | CC(=O)c1ccccc1C(=O)N1CCN(Cc2ccncc2)CC1 [Compound 6s, 1–(2-(4-(Pyridin-4-ylmethyl)piperazine-1-carbonyl)phenyl)ethan-1-one] | 12.9 ± 3.4 mg | 21.3% | –
2 | CC(=O)c1ccccc1C(=O)N1CCN(Cc2ccc([N+](=O)[O-])cc2)CC1 [Compound 6e, 1–(2-(4–(4-Nitrobenzyl)piperazine-1-carbonyl)phenyl)ethan-1-one] | 13.0 ± 3.3 mg | 20.7% | –
3 | CC(=O)c1ccccc1C(=O)N1CCN(Cc2ccc(Cl)cc2)CC1 [Compound 6a, 1–(2-(4–(4-Chlorobenzyl)piperazine-1-carbonyl)phenyl)ethan-1-one] | 11.9 ± 3.7 mg | 27.4% | –
4 | CC(=O)c1ccccc1C(=O)N1CCN(Cc2cccc(Cl)c2)CC1 [Compound 6i, 1–(2-(4–(3-Chlorobenzyl)piperazine-1-carbonyl)phenyl)ethan-1-one] | 12.0 ± 3.0 mg | 26.8% | –
5 | CC(=O)c1ccccc1C(=O)N1CCN(Cc2ccccc2)CC1 [Compound 6k, 1–(2-(4-Benzylpiperazine-1-carbonyl)phenyl)ethan-1-one] | 13.0 ± 3.5 mg | 20.7% | –
6 | COc1cccc(CN2CCN(C(=O)c3ccccc3C(C)=O)CC2)c1 [Compound 6o, 1–(2-(4–(3-Methoxybenzyl)piperazine-1-carbonyl)phenyl)ethan-1-one] | 13.0 ± 4.4 mg | 20.7% | –
7 | CC(=O)c1ccccc1C(=O)N1CCN(Cc2ccc(C#N)cc2)CC1 [Compound 6c, 4-((4–(2-Acetylbenzoyl)piperazin-1-yl)methyl)benzonitrile] | 11.3 ± 4.0 mg | 31.1% | –
8 | C[C@@H]1C[C@H]2[C@@H]3CCC4=CC(=O)C=C[C@]4(C)[C@@]3(F)[C@@H](O)C[C@]2(C)[C@@]1(O)C(=O)CO [DEX, Dexamethasone, reference compound] | – | – | Inhibition (%) of ear swelling [1, 5]: 51.8%; Swelling degree [1, 5]: 7.9 ± 3.0 mg
9 | CC(=O)c1ccccc1C(=O)N1CCN(Cc2ccc(Cl)cc2Cl)CC1 [Compound 6g, 1–(2-(4–(2,4-Dichlorobenzyl)piperazine-1-carbonyl)phenyl)ethan-1-one] | 12.9 ± 2.6 mg | 21.3% | –
10 | CC(=O)c1ccccc1C(=O)N1CCN(Cc2ccc(C(F)(F)F)cc2)CC1 [Compound 6d, 1–(2-(4–(4-(Trifluoromethyl)benzyl)piperazine-1-carbonyl)phenyl)ethan-1-one] | 12.5 ± 3.4 mg | 23.8% | –
11 | CC(=O)c1ccccc1C(=O)N1CCN(Cc2ccc(C)cc2)CC1 [Compound 6l, 1–(2-(4–(4-Methylbenzyl)piperazine-1-carbonyl)phenyl)ethan-1-one] | 11.4 ± 3.2 mg | 30.5% | –
12 | COc1ccc(CN2CCN(C(=O)c3ccccc3C(C)=O)CC2)c(OC)c1 [Compound 6m, 1–(2-(4–(2,4-Dimethoxybenzyl)piperazine-1-carbonyl)phenyl)ethan-1-one] | 11.6 ± 2.4 mg | 29.3% | –
13 | COc1ccc(CN2CCN(C(=O)c3ccccc3C(C)=O)CC2)cc1 [Compound 6b, 1–(2-(4–(4-Methoxybenzyl)piperazine-1-carbonyl)phenyl)ethan-1-one] | 12.0 ± 3.4 mg | 26.8% | –
14 | Cc1ccc(S(=O)(=O)/C=C/C#N)cc1 [Bay 11e7082, reference compound] | – | – | LPS-induced IκB phosphorylation [2]: markedly decreased; accumulation of NF-κB p65 subunit in the nucleus [2]: lowered; cytosolic IκB [2]: increased
15 | CC(=O)c1ccccc1C(=O)N1CCN(Cc2nc(C)c(C)nc2C)CC1 [Compound 6r, 1–(2-(4-((3,5,6-Trimethylpyrazin-2-yl)methyl)piperazine-1-carbonyl)phenyl)ethan-1-one] | 10.8 ± 3.5 mg | 34.1% | –
16 | CC(=O)c1ccccc1C(=O)N1CCN(Cc2ccccc2Cl)CC1 [Compound 6h, 1–(2-(4–(2-Chlorobenzyl)piperazine-1-carbonyl)phenyl)ethan-1-one] | 12.8 ± 4.1 mg | 21.9% | –
17 | CC(=O)c1ccccc1C(=O)N1CCN(Cc2ccc3c(c2)OCCO3)CC1 [Compound 6q, 1–(2-(4-((2,3-Dihydrobenzo[b][1,4]dioxin-6-yl)methyl)piperazine-1-carbonyl)phenyl)ethan-1-one] | 13.3 ± 2.6 mg | 18.9% | –
18 | CC(=O)c1ccccc1C(=O)N1CCN(Cc2ccc3c(c2)OCO3)CC1 [Compound 6p, 1–(2-(4-(Benzo[d][1,3]dioxol-5-ylmethyl)piperazine-1-carbonyl)phenyl)ethan-1-one] | 11.0 ± 3.2 mg | 32.9% | in vivo inhibitory activity, in words ([1]; p.o. 5 mg/kg, p < 0.01): significant inhibitory activity
